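The compound was tested at five concentrations on cells cultured in 96-well plates, with a 48-hour exposure period. GI50 is the concentration that inhibits growth by half. The concentration for full growth arrest is given as TGI.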
Tests used:
Assay in all cases: NCI-60 cell line screen, 48 h
[1] = test system: CAKI-1 renal
[2] = test system: EKVX NSCLC
[3] = test system: M14 melanoma
[4] = test system: MOLT-4 leukemia
[5] = test system: OVCAR-8 ovarian
[6] = test system: RPMI-8226 leukemia
[7] = test system: SK-MEL-2 melanoma
[8] = test system: SN12C renal
[9] = test system: U251 CNS
[10] = test system: T-47D breast

| SMILES | TGI [1] [µM] | TGI [2] [µM] | TGI [3] [µM] | TGI [4] [µM] | TGI [5] [µM] | TGI [6] [µM] | TGI [7] [µM] | TGI [8] [µM] | TGI [9] [µM] | TGI [10] [µM] | GI50 [1] [µM] | GI50 [7] [µM] | GI50 [9] [µM] |
| --- | --- | --- | --- | --- | --- | --- | --- | --- | --- | --- | --- | --- | --- |
| NS(=O)(=O)c1cc(S(N)(=O)=O)c(NC(=O)N(c2ccccc2)c2ccccc2)c(Cl)c1Cl | 65.2 | 62.8 | 51.4 | 42 | 34.2 | 44.6 | 82.7 | 57.6 | > 100 |  |  |  |  |
| CC(=O)NC1=C(NCC(C)C)C(=O)c2ccccc2C1=O | 30.6 | 59.9 | 33.2 | > 100 | 47.2 | > 100 | 67.8 | 31.2 | > 100 |  |  |  |  |
| COc1cccc(CN(C(=O)/C=C\Sc2ccccc2)C(C)(C)C)c1 | > 100 | > 100 | > 100 | > 100 | > 100 |  | > 100 | > 100 | > 100 | > 100 |  |  |  |
| CC(=O)Nc1ccc(C(=O)N2N=C(C)/C(=C/c3ccc(O)cc3)C2=O)cc1 | > 100 | > 100 |  | > 100 | > 100 | > 100 | > 100 | > 100 | > 100 |  |  |  |  |
| C/C(=C\Cc1cc(O)ccc1O)CCc1c(C)cc(O)c(C=O)c1C | 63.5 | > 100 | 63.1 | > 100 | 33.9 | > 100 | 58.6 | 92.4 | 67.6 |  |  |  |  |
| O=CNNC(=O)Nc1ccc(Cl)cc1 |  | > 100 | > 100 | > 100 | > 100 | > 100 |  | > 100 | > 100 | > 100 |  |  |  |
| CCOC(=O)CCCn1cc(C(=O)OC)nn1 | > 100 | > 100 |  | > 100 | > 100 |  | > 100 | > 100 | > 100 | > 100 |  |  |  |
| O=c1c2c(nc3n1CCC3)sc1c(O)c(Br)ccc12 | > 100 | 68.6 | > 100 | 55.1 | 24.2 | 53.6 | 39.3 | 43.1 | 57.3 |  |  |  |  |
| COc1ccc(/C=C2\CCC(CNc3ccc(Br)cc3)C2=O)cc1 (centres undefined) | > 100 | > 100 | > 100 | > 100 | > 100 | 33.3 |  | > 100 | > 100 | > 100 |  |  |  |
| Cc1cc(=O)[nH]c(NNC(C#N)c2ccc([N+](=O)[O-])cc2)n1 (centres undefined) | > 100 |  | > 100 | > 100 | > 100 | > 100 | > 100 | > 100 | > 100 |  |  |  |  |
| Nc1ncc(/C=N/O)c(NCC2(CO)CC(CCc3ccccc3)C2)n1 (centres undefined) | > 100 |  |  | 23 | 24.1 | 42.9 | 39.2 | 33 | 26.4 | 17.2 |  |  |  |
| CC12CC(C/C1=N/O)C(C)(C)C2 (centres undefined) | > 100 | > 100 | > 100 |  | > 100 |  |  | > 100 | > 100 | > 100 |  |  |  |
| CC1(C)CCC2(C(=O)OC3OC(CO)C(O)C(O)C3O)CCC3(CO)C(=CCC4C5(C)CC(O)C(O)C(C)(C(=O)OC6OC(CO)C(O)C(O)C6O)C5CCC43C)C2C1 (centres undefined) | > 100 | > 100 | > 100 | > 100 | > 100 |  | > 100 | > 100 | > 100 | > 100 |  |  |  |
| Cc1cc2n([O-])cccc-2[n+](=O)c1 | > 100 | > 100 | > 100 | > 100 | > 100 | > 100 | > 100 | > 100 | > 100 |  |  |  |  |
| O=C(OCc1ccccc1C1CSCSC1)c1cc(C(=O)OCc2ccccc2C2CSCSC2)c(C(=O)OCc2ccccc2C2CSCSC2)cc1C(=O)OCc1ccccc1C1CSCSC1 | > 100 |  | > 100 | > 100 | > 100 | > 100 | > 100 | > 100 | > 100 |  |  |  |  |
| CCCCCCOc1ccc(C(=N)N(CCCC)CCCC)c2ccccc12 | 2.86 |  |  |  |  |  | 3.23 |  | 2.97 |  | 1.39 | 1.72 | 1.5 |
| COC(=O)CC(NC(=O)OCc1ccccc1)C(C(=O)OCc1ccccc1)C1(C)OCCO1 (centres undefined) |  | > 100 | > 100 | 57.3 | > 100 | 73.7 | 43.8 | > 100 | > 100 |  |  |  |  |
| CC1(C)COC(c2c(-c3ccccc3)noc2CS(=O)c2ccccc2)=N1 (centres undefined) | > 100 | > 100 | > 100 | > 100 | > 100 | > 100 | 70.2 | > 100 | > 100 |  |  |  |  |
| Cc1ccc(S(=O)(=O)N/N=C2\C3CC4CC(C3)C2C4)cc1 (centres undefined) | > 100 |  | > 100 | > 100 | > 100 | > 100 | > 100 | > 100 | > 100 | > 100 |  |  |  |
| COC(=O)c1ccc(/C=C2\CCc3ccccc3C2=O)cc1 | > 100 | > 100 | > 100 | > 100 | > 100 | > 100 |  | > 100 | > 100 | > 100 |  |  |  |
| O=C(c1ccco1)C1CC(c2ccc3ccccc3c2O)=NN1c1ccc([N+](=O)[O-])cc1[N+](=O)[O-] (centres undefined) | > 100 |  | > 100 | 11.4 | > 100 |  | 97.3 | > 100 | > 100 | > 100 |  |  |  |
| O=[N+]([O-])c1ccc(NS(=O)(=O)C(F)(F)F)cc1 | > 100 | > 100 | > 100 | > 100 | > 100 |  | > 100 | > 100 | > 100 | > 100 |  |  |  |
| O=C(/C=C/c1ccco1)c1cccc(C(=O)/C=C/c2ccco2)n1 | > 100 | > 100 | > 96.3 | 6.25 | 8.83 |  | > 58.6 | 32 | 22.6 | > 100 |  |  |  |

Source: PubChem BioAssay (NCI)
